{"source": "patent US20240254118A1", "about": "“PRMT5 INHIBITORS AND USES THEREOF” (Gilead Sciences, Inc., priority 2022, published 2024)", "key": {"[1]": {"test_system": "SDMA signal (PRMT5 inhibition) in HCT116 MTAP-deleted cells", "test": "Symmetric di-methyl arginine image-based high content screen assay (SDMA assay), HCT116 MTAP-deleted", "format": "cell-based", "settings": "SDMA assay; for pEC50: Homo sapiens, HCT-116, 72 h, 3 days of treatment, cell line not given, taken as HCT116 MTAP-deleted, read-out: EC50 (SDMA assay)", "method_in_brief": "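HCT116 MTAP-deleted cells treated with compound until Day 3, then formalin-fixed, permeabilized and immunostained for SDMA, with DAPI nuclear counterstain. Imaged by high-content microscopy; SDMA read-out is mean Alexa 488 intensity per DAPI-defined cell, reflecting PRMT5 inhibition.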"}, "[2]": {"test_system": "HCT116 MTAP-deleted cells", "test": "Cell viability assay (CellTiter-Glo, 7 days), HCT116 MTAP-deleted", "settings": "Homo sapiens, HCT-116, 168 h"}, "[3]": {"settings": "taken as HCT116 WT versus MTAP-deleted"}}, "note": "pEC50: −log10 of the molar value.", "data": [{"smiles": "CN(C(=O)OC1CCC1)N(Cc1ccc(C(F)(F)F)cn1)C(=O)c1ccc2nc(N)c3cnn(C)c3c2c1", "note": "[Example 112, cyclobutyl N-[(4-amino-1-methyl-pyrazolo[4,3-c]quinoline-8-carbonyl)-[[5-(trifluoromethyl)-2-pyridyl]methyl]amino]-N-methyl-carbamate]", "values": [{"measurement": "pEC50", "setting": "[1]", "result": "> 9.00"}, {"measurement": "EC50 selectivity (SDMA assay)", "setting": "[1]; [3]", "result": 46}, {"measurement": "CC50", "setting": "[2]", "result": "< 100", "unit": "nM"}]}, {"smiles": "Cn1ncc2c(N)nc3ccc(C(=O)N(Cc4ccc(C(F)(F)F)cn4)NC(=O)OC(C)(C)C)cc3c21", "note": "[Example 277, tert-butyl 2-(4-amino-1-methyl-1H-pyrazolo[4,3-c]quinoline-8-carbonyl)-2-((5-(trifluoromethyl)pyridin-2-yl)methyl)hydrazine-1-carboxylate]", "values": [{"measurement": "pEC50", "setting": "[1]", "result": "8.30 to 9.00"}, {"measurement": "EC50 selectivity (SDMA assay)", "setting": "[1]; [3]", "result": 229}, {"measurement": "CC50", "setting": "[2]", "result": "< 100", "unit": "nM"}]}, {"smiles": "CC(=O)N(C)N(Cc1ccc(C#CC23CC(C2)C3)cc1F)C(=O)c1ccc2nc(N)c3cnn(C)c3c2c1", "note": "[Example 390, N′-acetyl-4-amino-N-[[4-[2-(1-bicyclo[1.1.1]pentanyl)ethynyl]-2-fluoro-phenyl]methyl]-N′,1-dimethyl-pyrazolo[4,3-c]quinoline-8-carbohydrazide]", "values": [{"measurement": "pEC50", "setting": "[1]", "result": "8.30 to 9.00"}, {"measurement": "EC50 selectivity (SDMA assay)", "setting": "[1]; [3]", "result": 27}, {"measurement": "CC50", "setting": "[2]", "result": "< 100", "unit": "nM"}]}, {"smiles": "Cn1ncc2c(N)nc3ccc(C(=O)N(Cc4ccc(C(F)(F)F)cc4F)N4CCCCC4=O)cc3c21", "note": "[Example 2, 4-amino-N-(2-fluoro-4-(trifluoromethyl)benzyl)-1-methyl-N-(2-oxopiperidin-1-yl)-1H-pyrazolo[4,3-c]quinoline-8-carboxamide]", "values": [{"measurement": "pEC50", "setting": "[1]", "result": "> 9.00"}, {"measurement": "EC50 selectivity (SDMA assay)", "setting": "[1]; [3]", "result": 25}, {"measurement": "CC50", "setting": "[2]", "result": "< 100", "unit": "nM"}]}, {"smiles": "CC(=O)N(C)N(Cc1cc2cc(C(F)(F)F)ccn2n1)C(=O)c1ccc2nc(N)c3cnn(C)c3c2c1", "note": "[Example 402, N′-acetyl-4-amino-N′,1-dimethyl-N-((5-(trifluoromethyl)pyrazolo[1,5-a]pyridin-2-yl)methyl)-1H-pyrazolo[4,3-c]quinoline-8-carbohydrazide]", "values": [{"measurement": "pEC50", "setting": "[1]", "result": "> 9.00"}, {"measurement": "EC50 selectivity (SDMA assay)", "setting": "[1]; taken as HCT116 WT vs MTAP-deleted", "result": 311}, {"measurement": "CC50", "setting": "[2]", "result": "< 100", "unit": "nM"}]}, {"smiles": "Cn1ncc2c(N)nc3ccc(C(=O)N(Cc4ccc(C(F)(F)F)cn4)N4CCc5ccccc5C4=O)cc3c21", "note": "[Example 36, 4-amino-1-methyl-N-(1-oxo-3,4-dihydroisoquinolin-2-yl)-N-[[5-(trifluoromethyl)-2-pyridyl]methyl]pyrazolo[4,3-c]quinoline-8-carboxamide]", "values": [{"measurement": "pEC50", "setting": "[1]", "result": "> 9.00"}, {"measurement": "EC50 selectivity (SDMA assay)", "setting": "[1]; [3]", "result": 30}, {"measurement": "CC50", "setting": "[2]", "result": "< 100", "unit": "nM"}]}, {"smiles": "Cn1ncc2c(N)nc3cc(F)c(C(=O)N(Cc4ccc(C(F)(F)F)cn4)N4C[C@H]5CC[C@@H](C4)O5)cc3c21", "note": "[Example 309, 4-amino-N-((1R,5S)-8-oxa-3-azabicyclo[3.2.1]octan-3-yl)-7-fluoro-1-methyl-N-((5-(trifluoromethyl)pyridin-2-yl)methyl)-1H-pyrazolo[4,3-c]quinoline-8-carboxamide]", "values": [{"measurement": "pEC50", "setting": "[1]", "result": "8.30 to 9.00"}, {"measurement": "EC50 selectivity (SDMA assay)", "setting": "[1]; [3]", "result": 52}, {"measurement": "CC50", "setting": "[2]", "result": "< 100", "unit": "nM"}]}, {"smiles": "CN(C(=O)C(C)(C)C)N(Cc1ccc(C(F)(F)F)cn1)C(=O)c1ccc2nc(N)c3cnn(C)c3c2c1", "note": "[Example 119, 4-amino-N′,1-dimethyl-N′-pivaloyl-N-((5-(trifluoromethyl)pyridin-2-yl)methyl)-1H-pyrazolo[4,3-c]quinoline-8-carbohydrazide]", "values": [{"measurement": "pEC50", "setting": "[1]", "result": "> 9.00"}, {"measurement": "EC50 selectivity (SDMA assay)", "setting": "[1]; [3]", "result": 156}, {"measurement": "CC50", "setting": "[2]", "result": "< 100", "unit": "nM"}]}, {"smiles": "[2H]C([2H])([2H])N(C(=O)C1CC1)N(Cc1ncc(C(F)(F)F)cc1F)C(=O)c1ccc2nc(N)c3cnn(C([2H])([2H])[2H])c3c2c1", "note": "[Example 278, 4-amino-N′-(cyclopropanecarbonyl)-N-((3-fluoro-5-(trifluoromethyl)pyridin-2-yl)methyl)-N′,1-bis(methyl-d3)-1H-pyrazolo[4,3-c]quinoline-8-carbohydrazide]", "values": [{"measurement": "pEC50", "setting": "[1]", "result": "> 9.00"}, {"measurement": "EC50 selectivity (SDMA assay)", "setting": "[1]; [3]", "result": 121}, {"measurement": "CC50", "setting": "[2]", "result": "< 100", "unit": "nM"}]}]}
